Experimental data taken from ChEMBL document CHEMBL1127965, “Synthesis of novel monocyclic squalestatin analogues as potential inhibitors of squalene synthase” (Bioorg Med Chem Lett, 1994).

Molecular target: T1, Squalene synthase (Rattus norvegicus, UniProt Q02769)
T1 sequence (Q02769 whole entry): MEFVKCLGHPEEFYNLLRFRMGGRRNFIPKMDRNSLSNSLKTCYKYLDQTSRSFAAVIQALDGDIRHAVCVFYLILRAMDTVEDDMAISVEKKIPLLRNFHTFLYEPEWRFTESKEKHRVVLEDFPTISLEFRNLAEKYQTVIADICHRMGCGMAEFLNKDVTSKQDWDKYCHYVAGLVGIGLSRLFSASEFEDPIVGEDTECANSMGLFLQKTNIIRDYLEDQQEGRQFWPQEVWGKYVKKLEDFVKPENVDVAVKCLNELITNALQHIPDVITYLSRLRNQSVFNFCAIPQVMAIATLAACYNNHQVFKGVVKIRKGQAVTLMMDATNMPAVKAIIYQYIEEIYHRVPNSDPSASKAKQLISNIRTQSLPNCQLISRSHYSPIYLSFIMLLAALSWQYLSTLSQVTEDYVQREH
Assay: In vitro inhibitory activity against rat liver squalene synthase

IC50 [µM] | Compound
0.057 | C=C(CCC12CCC(C(=O)O)(O1)C(O)(C(=O)O)C(C(=O)O)O2)[C@@H](OC(C)=O)[C@H](C)Cc1ccccc1 (some centres not stated)
8 | O=C(O)C1OC(CCCCCCc2ccccc2)OC(C(=O)O)C1(O)C(=O)O (configuration not stated)
